The text below walks through data of patent US8846698B2, “Pyrrolo[2,3-d]pyrimidine tropomysin-related kinase inhibitors” (Pfizer Limited, priority 2011, dated 2014).

TRKA, sequence (P04629 441-796): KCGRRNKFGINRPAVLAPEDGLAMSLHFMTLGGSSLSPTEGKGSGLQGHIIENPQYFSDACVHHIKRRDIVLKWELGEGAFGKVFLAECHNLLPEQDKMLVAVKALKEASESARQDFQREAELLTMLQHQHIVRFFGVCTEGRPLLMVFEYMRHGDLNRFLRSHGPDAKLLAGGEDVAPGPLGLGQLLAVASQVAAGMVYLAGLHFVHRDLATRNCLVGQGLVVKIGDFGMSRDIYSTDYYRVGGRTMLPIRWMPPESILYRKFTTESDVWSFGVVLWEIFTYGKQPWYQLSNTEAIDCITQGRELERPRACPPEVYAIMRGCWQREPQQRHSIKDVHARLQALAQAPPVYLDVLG

The assay concerns the target TRKA (Homo sapiens (Human), UniProt P04629). Nature of the assay: Isolated TRK enzyme assay (HTRF KinEASE-TK), TRKA. The assay is classed as biochemical. Particulars: read-out: Trka enzyme (IC50). (Time-resolved FRET reads energy transfer from a long-lived donor to a nearby acceptor.)
As a reminder, the IC50 is the concentration that gives 50% inhibition. On to `CCc1cc(C(=O)Nc2cncc(C(=O)c3cn(C(C)C)c4ncncc34)c2)no1` [Example 396, 5-Ethyl-isoxazole-3-carboxylic acid[5-(7-isopropyl-7H-pyrrolo[2,3-d]pyrimidine-5-carbonyl)-pyridin-3-yl]-amide], for which the IC50 worked out at 177 nM. With `CC(C)n1cc(C(=O)c2cncc(NC(=O)c3ccnn3C)c2)c2cncnc21` [Example 397, 2-Methyl-2H-pyrazole-3-carboxylic acid [5-(7-isopropyl-7H-pyrrolo[2,3-d]pyrimidine-5-carbonyl)-pyridin-3-yl]-amide], the IC50 came out at 9800 nM.

Turning to `CC(C)n1cc(C(=O)c2cncc(NC(=O)c3cnc4ccccc4c3)c2)c2cncnc21` [Example 398, Quinoline-3-carboxylic acid [5-(7-isopropyl-7H-pyrrolo[2,3-d]pyrimidine-5-carbonyl)-pyridin-3-yl]-amide], the IC50 was determined as 138 nM. Regarding `CC(C)n1cc(C(=O)c2cncc(NC(=O)c3cc4cc(F)cnc4[nH]3)c2)c2cncnc21` [Example 399, 5-Fluoro-1H-pyrrolo[2,3-b]pyridine-2-carboxylic acid [5-(7-isopropyl-7H-pyrrolo[2,3-d]pyrimidine-5-carbonyl)-pyridin-3-yl]-amide], the IC50 turned out to be 153 nM.

For `Cc1cc(C(=O)Nc2cncc(C(=O)c3cn(C(C)C)c4ncncc34)c2)nn1C` [Example 400, 1,5-Dimethyl-1H-pyrazole-3-carboxylic acid [5-(7-isopropyl-7H-pyrrolo[2,3-d]pyrimidine-5-carbonyl)-pyridin-3-yl]-amide], the IC50 came out at 593 nM.

As for `CC(C)n1cc(C(=O)c2cncc(NC(=O)c3coc(C4CC4)n3)c2)c2cncnc21` [Example 401, 2-Cyclopropyl-oxazole-4-carboxylic acid [5-(7-isopropyl-7H-pyrrolo[2,3-d]pyrimidine-5-carbonyl)-pyridin-3-yl]-amide], the IC50 was 132 nM. `CC(C)n1cc(C(=O)c2cncc(NC(=O)c3scnc3C(F)(F)F)c2)c2cncnc21` [Example 402, 4-Trifluoromethyl-thiazole-5-carboxylic acid [5-(7-isopropyl-7H-pyrrolo[2,3-d]pyrimidine-5-carbonyl)-pyridin-3-yl]-amide]: the IC50 stood at 9800 nM.

Take `CC(C)n1cc(C(=O)c2cncc(NC(=O)c3ncn4c3CCC4)c2)c2cncnc21` [Example 403, 6,7-Dihydro-5H-pyrrolo[1,2-c]imidazole-1-carboxylic acid [5-(7-isopropyl-7H-pyrrolo[2,3-d]pyrimidine-5-carbonyl)-pyridin-3-yl]-amide]: the IC50 was 1220 nM. Then `CC(C)n1cc(C(=O)c2cncc(NC(=O)c3cc4sccc4cn3)c2)c2cncnc21` [Example 404, Thieno[3,2-c]pyridine-6-carboxylic acid [5-(7-isopropyl-7H-pyrrolo[2,3-d]pyrimidine-5-carbonyl)-pyridin-3-yl]-amide], with 118 nM; and `CC(C)n1cc(C(=O)c2cncc(NC(=O)c3cn(C)nc3C(F)(F)F)c2)c2cncnc21` [Example 405, 1-Methyl-3-trifluoromethyl-1H-pyrazole-4-carboxylic acid [5-(7-isopropyl-7H-pyrrolo[2,3-d]pyrimidine-5-carbonyl)-pyridin-3-yl]-amide], with 1630 nM.

Take `CC(C)n1cc(C(=O)c2cncc(NC(=O)c3ccn4cncc4c3)c2)c2cncnc21` [Example 406, Imidazo[1,5-a]pyridine-7-carboxylicacid [5-(7-isopropyl-7H-pyrrolo[2,3-d]pyrimidine-5-carbonyl)-pyridin-3-yl]-amide]: the IC50 stood at 2640 nM. Then `CC(C)n1cc(C(=O)c2cncc(NC(=O)c3ccnc4[nH]ccc34)c2)c2cncnc21` [Example 407, 1H-Pyrrolo[2,3-b]pyridine-4-carboxylic acid [5-(7-isopropyl-7H-pyrrolo[2,3-d]pyrimidine-5-carbonyl)-pyridin-3-yl]-amide], with 2600 nM; and `CCc1cc(C(=O)Nc2cncc(C(=O)c3cn(C(C)C)c4ncncc34)c2)on1` [Example 408, 3-Ethyl-isoxazole-5-carboxylic acid[5-(7-isopropyl-7H-pyrrolo[2,3-d]pyrimidine-5-carbonyl)-pyridin-3-yl]-amide], with 654 nM. With `COc1ccnc(C(=O)Nc2cncc(C(=O)c3cn(C(C)C)c4ncncc34)c2)c1` [Example 409, 4-Methoxy-pyridine-2-carboxylic acid [5-(7-isopropyl-7H-pyrrolo[2,3-d]pyrimidine-5-carbonyl)-pyridin-3-yl]-amide], the IC50 was determined as 70.4 nM. As to `CC(C)n1cc(C(=O)c2cncc(NC(=O)c3cncnc3)c2)c2cncnc21` [Example 410, Pyrimidine-5-carboxylic acid [5-(7-isopropyl-7H-pyrrolo[2,3-d]pyrimidine-5-carbonyl)-pyridin-3-yl]-amide], the half-inhibitory concentration (IC50) is 9800 nM. For the compound `Cc1n[nH]cc1C(=O)Nc1cncc(C(=O)c2cn(C(C)C)c3ncncc23)c1` [Example 411, 3-Methyl-1H-pyrazole-4-carboxylic acid [5-(7-isopropyl-7H-pyrrolo[2,3-d]pyrimidine-5-carbonyl)-pyridin-3-yl]-amide], the IC50 was found to be 9800 nM. In the case of `Cc1cnc2[nH]cc(C(=O)Nc3cncc(C(=O)c4cn(C(C)C)c5ncncc45)c3)c2c1` [Example 412, 5-Methyl-1H-pyrrolo[2,3-b]pyridine-3-carboxylic acid [5-(7-isopropyl-7H-pyrrolo[2,3-d]pyrimidine-5-carbonyl)-pyridin-3-yl]-amide], the IC50 is 5.18 nM. On to `Cc1cncnc1C(=O)Nc1cncc(C(=O)c2cn(C(C)C)c3ncncc23)c1` [Example 413, 5-Methyl-pyrimidine-4-carboxylic acid [5-(7-isopropyl-7H-pyrrolo[2,3-d]pyrimidine-5-carbonyl)-pyridin-3-yl]-amide], for which the IC50 is 9800 nM.

For `CC(C)n1cc(C(=O)c2cncc(NC(=O)c3cnc4ccsc4c3)c2)c2cncnc21` [Example 414, Thieno[3,2-b]pyridine-6-carboxylic acid [5-(7-isopropyl-7H-pyrrolo[2,3-d]pyrimidine-5-carbonyl)-pyridin-3-yl]-amide], the IC50 was determined as 158 nM. For the compound `CC(C)n1cc(C(=O)c2cncc(NC(=O)c3cnc4ccnn4c3)c2)c2cncnc21` [Example 415, Pyrazolo[1,5-a]pyrimidine-6-carboxylic acid [5-(7-isopropyl-7H-pyrrolo[2,3-d]pyrimidine-5-carbonyl)-pyridin-3-yl]-amide], the IC50 was 2590 nM. Turning to `CC(C)n1cc(C(=O)c2cncc(NC(=O)c3noc4c3CCCC4)c2)c2cncnc21` [Example 416, 4,5,6,7-Tetrahydro-1,2-benzisoxazole-3-carboxylic acid [5-(7-isopropyl-7H-pyrrolo[2,3-d]pyrimidine-5-carbonyl)-pyridin-3-yl]-amide], the IC50 came out at 52 nM.

Consider `CC(C)n1cc(C(=O)c2cncc(NC(=O)c3ncc4ccccn34)c2)c2cncnc21` [Example 417, Imidazo[1,5-a]pyridine-3-carboxylicacid [5-(7-isopropyl-7H-pyrrolo[2,3-d]pyrimidine-5-carbonyl)-pyridin-3-yl]-amide], for which the IC50 stood at 71.2 nM. On to `CC(C)n1cc(C(=O)c2cncc(NC(=O)c3ccc4cc[nH]c4n3)c2)c2cncnc21` [Example 418, 1H-Pyrrolo[2,3-b]pyridine-6-carboxylic acid [5-(7-isopropyl-7H-pyrrolo[2,3-d]pyrimidine-5-carbonyl)-pyridin-3-yl]-amide], for which the IC50 is 40.2 nM. The value for `CC(C)n1cc(C(=O)c2cncc(NC(=O)c3n[nH]c4c3CCC4)c2)c2cncnc21` [Example 419, 1,4,5,6-Tetrahydro-cyclopentapyrazole-3-carboxylic acid [5-(7-isopropyl-7H-pyrrolo[2,3-d]pyrimidine-5-carbonyl)-pyridin-3-yl]-amide] was 15.1 nM.

With `CC(C)n1cc(C(=O)c2cncc(NC(=O)c3cncnc3N)c2)c2cncnc21` [Example 420, 4-Amino-pyrimidine-5-carboxylic acid [5-(7-isopropyl-7H-pyrrolo[2,3-d]pyrimidine-5-carbonyl)-pyridin-3-yl]-amide], the half-maximal inhibitory concentration (IC50) came out at 9800 nM. With `CC(C)n1cc(C(=O)c2cncc(NC(=O)c3c[nH]c4cnccc34)c2)c2cncnc21` [Example 421, 1H-Pyrrolo[2,3-c]pyridine-3-carboxylic acid [5-(7-isopropyl-7H-pyrrolo[2,3-d]pyrimidine-5-carbonyl)-pyridin-3-yl]amide], the IC50 is 1730 nM. For `Cc1cc(C(=O)Nc2cncc(C(=O)c3cn(C(C)C)c4ncncc34)c2)ccn1` [Example 422, N-[5-(7-Isopropyl-7H-pyrrolo[2,3-d]pyrimidine-5-carbonyl)-pyridin-3-yl]-2-methyl-isonicotinamide], the concentration for half-maximal inhibition (IC50) is 451 nM. The value for `CC(C)n1cc(C(=O)c2cncc(NC(=O)c3ccc4nccn4c3)c2)c2cncnc21` [Example 423, Imidazo[1,2-a]pyridine-6-carboxylicacid [5-(7-isopropyl-7H-pyrrolo[2,3-d]pyrimidine-5-carbonyl)-pyridin-3-yl]amide] was 1330 nM; that for `CC(C)n1cc(C(=O)c2cncc(NC(=O)c3nc[nH]n3)c2)c2cncnc21` [Example 424, 1H-1,2,4-Triazole-3-carboxylic acid[5-(7-isopropyl-7H-pyrrolo[2,3-d]pyrimidine-5-carbonyl)-pyridin-3-yl]-amide] was 4310 nM.

For `COc1ccc(C(=O)Nc2cncc(C(=O)c3cn(C(C)C)c4ncncc34)c2)nc1` [Example 425, 5-Methoxy-pyridine-2-carboxylic acid [5-(7-isopropyl-7H-pyrrolo[2,3-d]pyrimidine-5-carbonyl)-pyridin-3-yl]-amide], the IC50 worked out at 796 nM.

Turning to `CC(C)n1cc(C(=O)c2cncc(NC(=O)c3cnnc4ccccc34)c2)c2cncnc21` [Example 426, Cinnoline-4-carboxylic acid [5-(7-isopropyl-7H-pyrrolo[2,3-d]pyrimidine-5-carbonyl)-pyridin-3-yl]-amide], the IC50 stood at 228 nM. With `CC(C)n1cc(C(=O)c2cncc(NC(=O)c3ccn4ncnc4c3)c2)c2cncnc21` [Example 427, [1,2,4]Triazolo[1,5-a]pyridine-7-carboxylic acid [5-(7-isopropyl-7H-pyrrolo[2,3-d]pyrimidine-5-carbonyl)-pyridin-3-yl]amide], the IC50 was 93.4 nM.
